Experimental findings from ChEMBL document CHEMBL1201862, “PubChem BioAssay data set” (2004) are described below.

SMILES strings stand for the structures.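 Following 48 hours of exposure in 96-well plates, responses at five concentrations were used to interpolate endpoints linearly. Here, GI50 denotes the concentration required for 50% inhibition of growth.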 Activity calls are given as the source filed them. No stated cut-off is given here; in the data, active = GI50 up to about 1.1 µM and inactive = higher.

Among the test systems are HL-60; SF-295; UACC-62; RXF 393; SR; SNB-75; CCRF-CEM; A549; MCF7; HCT-15; NCI-H23; HOP-92; OVCAR-5; KM12; K562; IGROV-1; 786-0; SF-539; T47D; MDA-MB-435.
Assay in all cases: NCI-60 cell line screen, 48 h

With `CCOC(=O)C(NC(=O)c1ccccc1)(Nc1ccc(S(=O)(=O)Nc2cc(C)on2)cc1)C(F)(F)F` (stereo not given), the GI50 in the assay with HL-60, with SF-295, in the assay with UACC-62, in the assay with RXF 393, in the assay with SR and with SNB-75 was > 100 µM (inactive) throughout. In addition, the GI50 with CCRF-CEM was > 100 µM (inactive); in the assay with A549, > 100 µM (inactive); with MCF7, > 100 µM (inactive); with HCT-15, greater than 100 µM; in the assay with NCI-H23, > 10 µM (inactive); in the assay with HOP-92, > 100 µM (inactive). For the same compound, the GI50 with OVCAR-5, in the assay with KM12, in the assay on K562, in the assay on IGROV-1, with 786-0 and in the assay on SF-539 was > 100 µM (inactive) each time. For the same compound, the GI50 with T47D and in the assay with MDA-MB-435 was > 100 µM (inactive) each time.

As for `c1ccc(CN[C@]23C4C5CC6C7C5C2C7[C@@](NCc2ccccc2)(C64)N3Cc2ccccc2)cc1` (stereo not given in full), the GI50 with HL-60 was > 100 µM (inactive); with SF-295 it was > 100 µM (inactive); in the assay on UACC-62 it was > 100 µM (inactive); in the assay on RXF 393 it was > 100 µM (inactive); with SR, 3.94 µM (inactive); with SNB-75 it was > 100 µM (inactive). In addition, the GI50 with CCRF-CEM is > 100 µM (inactive); with A549, > 100 µM (inactive); in the assay with MCF7, > 100 µM (inactive); in the assay with HCT-15, greater than 100 µM; with NCI-H23, > 100 µM (inactive); with HOP-92 it was > 100 µM (inactive). Further, the GI50 in the assay on OVCAR-5, with KM12, with K562, in the assay with IGROV-1, in the assay on 786-0 and in the assay with SF-539 was > 100 µM (inactive) in each case. The GI50 in the assay with T47D and in the assay with MDA-MB-435 was > 100 µM (inactive) each time.

For `Oc1cccc2c(Cl)ccnc12`, the GI50 in the assay with HL-60 was 0.124 µM (active); with SF-295, 0.889 µM (active); in the assay on UACC-62 it was 0.362 µM (active); with RXF 393, 0.83 µM (active); in the assay on SR, 0.243 µM (active); in the assay with SNB-75, 28.5 µM (inactive). The GI50 with CCRF-CEM is 0.266 µM (active); with A549, 3.44 µM (inactive); in the assay on MCF7, 1.11 µM (active); with HCT-15, 0.305 µM; in the assay on NCI-H23 it was 3.15 µM (inactive); in the assay on HOP-92, 2.84 µM (inactive). Besides, the GI50 was 5.22 µM (inactive) in the assay on OVCAR-5; 4.93 µM (inactive) in the assay with KM12; 0.42 µM (active) in the assay on K562; 1.61 µM (inactive) with IGROV-1; 10.9 µM (inactive) with 786-0; 2.11 µM (inactive) in the assay on SF-539. In addition, the figures for the GI50 in the assay on T47D and with MDA-MB-435 were 0.397 µM (active) and 2.67 µM (inactive), respectively.

As for `O=c1c(C(c2ccc3ccccc3c2)c2c(O)oc3cc(O)ccc3c2=O)c(O)oc2cc(O)ccc12`, the GI50 in the assay with HL-60 is 38.5 µM (inactive); in the assay on SF-295, > 100 µM (inactive); in the assay on UACC-62 it was > 100 µM (inactive); with RXF 393, 88.5 µM (inactive); in the assay on SR, 26.6 µM (inactive); in the assay with SNB-75 it was 17.5 µM (inactive). Moreover, the GI50 in the assay on CCRF-CEM was 43.2 µM (inactive); with A549, > 100 µM (inactive); in the assay with MCF7, 43.2 µM (inactive); in the assay on HCT-15, greater than 100 µM; in the assay with NCI-H23 it was > 100 µM (inactive); with HOP-92 it was 75 µM (inactive). In addition, the GI50 with OVCAR-5 is > 100 µM (inactive); in the assay on KM12, 30.6 µM (inactive); in the assay with K562 it was 30.5 µM (inactive); in the assay on IGROV-1, > 100 µM (inactive); in the assay with 786-0, > 100 µM (inactive); with SF-539, 84.1 µM (inactive). Besides, the values for the GI50 in the assay on T47D and in the assay on MDA-MB-435 were > 100 µM (inactive) and 46 µM (inactive), respectively.

As to `Cc1nc(O)nc2nc3ccc(Cl)cc3c(NC(C)(CO)CO)c12`, the GI50 in the assay on HL-60 is > 100 µM (inactive); in the assay with SF-295 it was 66.5 µM (inactive); with UACC-62 it was > 75.3 µM (inactive); with RXF 393 it was 20.1 µM (inactive); with SR, 99.8 µM (inactive); in the assay on SNB-75 it was 24.2 µM (inactive). Further, the GI50 in the assay on CCRF-CEM was > 26.8 µM (inactive); in the assay on A549, > 34.4 µM (inactive); in the assay with MCF7, > 68.4 µM (inactive); with HCT-15, 88.3 µM; with NCI-H23, 63.5 µM (inactive); in the assay on HOP-92, 74.1 µM (inactive). The GI50 was > 100 µM (inactive) in the assay on OVCAR-5; > 100 µM (inactive) in the assay on KM12; > 100 µM (inactive) in the assay on K562; 49.9 µM (inactive) with IGROV-1; > 57.4 µM (inactive) with 786-0; > 50.6 µM (inactive) in the assay on SF-539. Also, the GI50 with T47D is 17.6 µM (inactive); with MDA-MB-435, > 100 µM (inactive).

On to `O=C(O)CC(Cc1ccc2c(c1)OCO2)C(=O)O` (stereo not given), for which the GI50 with HL-60, in the assay on SF-295, with UACC-62, in the assay on RXF 393, in the assay on SR and in the assay on SNB-75 was > 100 µM (inactive) each time. Further, the GI50 in the assay on CCRF-CEM is 56.2 µM (inactive); with A549, > 100 µM (inactive); in the assay on MCF7 it was > 100 µM (inactive); with HCT-15, greater than 100 µM; in the assay on NCI-H23, > 100 µM (inactive); in the assay with HOP-92, > 100 µM (inactive). Besides, the GI50 in the assay with OVCAR-5, in the assay with KM12, in the assay on K562, with IGROV-1, in the assay with 786-0 and in the assay on SF-539 was > 100 µM (inactive) each time. Moreover, the GI50 in the assay on T47D and with MDA-MB-435 was > 100 µM (inactive) in each case.

For `COc1cc(/C=C/C(=N\NC(N)=S)c2sc(NNC(C)=O)nc2C)ccc1O`, the GI50 in the assay with HL-60 is 29.6 µM (inactive); in the assay with SF-295 it was > 100 µM (inactive); in the assay with UACC-62 it was > 100 µM (inactive); in the assay with RXF 393 it was > 100 µM (inactive); in the assay on SR it was > 100 µM (inactive); with SNB-75 it was > 100 µM (inactive). Besides, the GI50 in the assay on CCRF-CEM was > 100 µM (inactive); with A549, > 100 µM (inactive); with MCF7, > 100 µM (inactive); in the assay with HCT-15, greater than 100 µM; with NCI-H23, > 100 µM (inactive); in the assay with HOP-92, > 100 µM (inactive). Moreover, the GI50 with OVCAR-5, in the assay on KM12, with K562, in the assay on IGROV-1, with 786-0 and with SF-539 was > 100 µM (inactive) throughout. Also, the GI50 with T47D and in the assay on MDA-MB-435 was > 100 µM (inactive) throughout.
